Experimental data published in publication PMC10321483 (Chemical Science, 2023).
Several values for one entry are separate records, joined by “and”; a condition that tells them apart may be missing. Identical values can stand only once. Like-named read-outs stand apart in the source and are kept apart here.

Experiments:
BlaC = target: T1, BlaC (Mycobacterium tuberculosis, UniProt P9WKD3); assay: BlaC fluorogenic inhibition assay with FC5 (dose-response); format: biochemical; details: Table S5 HTS hits, 30 minute inhibitor pre-incubation, two independent repeats
T1 construct: made in house; host or cells: E. coli
Method: Two types of controls were used. […] In control 2, the BlaC mixture was substituted with the assay buffer. This mixture was incubated for 30 minutes at room temperature without shaking. […] Data were analysed using ActivityBase (IDBS).

[1] = tested on: M. tuberculosis (strain H37Rv) growth in THP1 cells; assay: Intracellular assay: Mtb H37Rv-Luc in THP-1 macrophages; format: cell-based, Mycobacterium tuberculosis; details: 5 days, extrapolated from dose-response curve
[2] = tested on: M. tuberculosis (strain H37Rv); assay: Extracellular assay: M. tuberculosis H37Rv in medium under replicating conditions; format: cell-based, Mycobacterium tuberculosis
HepG2 cells = assay: HepG2 cytotoxicity assay (CellTiter Glo); format: cell-based; details: 48 h, ATP read-out
Method: Solutions of the test compounds (250 nL per well; 11 serial dilutions of 1/3 with starting concentration 100 μM) were dispensed in tissue-culture treated black clear-bottomed 384-well plates (Greiner, cat. no. 781091) with an Echo 555 instrument. 25 μL of HepG2 (ATCC HB-8065) cells (∼3000 cells per well) grown to confluency in Eagle's Minimal Essential Medium (MEM) supplemented with 10% (v/v) heat-inactivated FBS, 1% (v/v) non-essential amino acids (NEAA), and 1% (v/v) penicillin/streptomycin were added to each well. Plates were incubated at 37 °C with 20% O2 and 5% CO2 for 48 h. The plates were then equilibrated to room temperature. ATP levels, measured with CellTiter Glo kit (Promega), were used as cell viability read-out. 25 μL of CellTiter Glo substrate dissolved in the buffer was added to each well. Plates were incubated at room temperature for 10 min and read on ViewLux (PerkinElmer) […].

LdtMt2 [3] = target: T2, LdtMt2 (Mycobacterium tuberculosis, UniProt I6Y9J2); assay: biochemical; format: biochemical; parameters: made in house; host or cells: E. coli
LdtMt2 [4] = target: T2, LdtMt2; assay: Rate constant of covalent target inactivation (kinact/KI), endpoint competition assay with probe 2; format: biochemical; parameters: made in house; host or cells: E. coli; details: 100 nM LdtMt2, 10 µM probe 2, 3 h incubation; n=4
LdtMt2 [5] = target: T2, LdtMt2; assay: biochemical; format: binding; parameters: made in house; host or cells: E. coli
Method: LdtMt2 (5 μM) was incubated with the inhibitor (500 μM) in assay buffer (50 mM tris pH 7.5) for 30 minutes at room temperature in 96-well white PCR plates (25 μL final volume, Starlab). SYPRO Orange (final concentration 6×, according to manufacturer's definition, Invitrogen) was then added and the plate was sealed using a transparent plastic film (Polyolefin StarSeal, Starlab). Fluorescence was monitored (with λex = 492 nm and λem = 610 nm) using a CFX96 Touch Real-Time PCR Detection System (Bio-Rad), while the temperature was increased from 20 to 95 °C in increments of 0.2 °C. Melting temperatures (Tms) were determined using the CFX Maestro Software (Bio-Rad).

[6] = Intrinsic thiol reactivity (kchem), competition with probe 2 for L-glutathione; format: physicochemical; details: for log(kchem) probe 2 (mean ± SD): Table S11 assay validation; for kchem (apparent intrinsic thiol reactivity): Table S5, L-glutathione 500 nM, probe 2 10 µM, 15 h
[7] = parameters: method as in earlier work; details: Table S11; reported values; ref 6 (Sameshima et al., 2017); cited from earlier work
LdtMt2 [8] = target: T2, LdtMt2; details: 1 μM LdtMt2, denaturing acidic conditions
Method: LdtMt2 (1 μM) in buffer (50 mM tris, pH 7.5) was incubated with an inhibitor (100 μM, 10 μM, or 2 μM, as indicated). Mass spectrometry was performed using a RapidFire200 integrated autosampler/solid phase extraction (SPE) system (Agilent Technologies) coupled to an API40000 triple quadrupole mass spectrometer (Applied Biosystems) operating in the positive ionisation mode. Samples were taken after the specified incubation periods, loaded onto a C4 cartridge (Agilent Technologies), and eluted with organic phase (85% (v/v) acetonitrile, 15% (v/v) water, 0.1% (v/v) formic acid). The cartridge was washed with both the organic phase and an aqueous phase (water, 0.1% (v/v) formic acid). Data were analysed using MassHunter Qualitative Analysis B.07.00 (Agilent Technologies). Spectra were deconvoluted using the maximum entropy algorithm in the same programme.

LdtMt2 [9] = target: T2, LdtMt2; assay: Jump dilution assay (reversibility, koff); format: biochemical; parameters: made in house; host or cells: E. coli; details: read-out: koff (off rate of complex with LdtMt2)
Method: LdtMt2 (10 μM final concentration) was incubated with the inhibitor (100 μM final concentration) in the assay buffer (50 mM HEPES, pH 7.2, 0.01% (v/v) Triton X-100) for 2 hours at room temperature, then serially diluted 1000× with assay buffer (final LdtMt2 concentration 10 nM). 20 μL of the diluted mixture was added to a black polystyrene, flat-bottomed 384-well μ-clear plate (clear bottomed, Greiner Bio-One, part number 781096). Probe 2 (final concentration 15 μM) was added using a MultiDrop Combi dispenser (ThermoFisher Scientific). Fluorescence was measured using a PHERAstar plate reader (BMG Labtech) with λex = 480 nm and λem = 520 nm. Readings were taken every 15 s for a period of 5 minutes, using bottom optic measurements. The off rate (koff) was determined using eqn (7).7 [drawing 3] where, P = formed product; Vs = velocity of no-inhibitor control; V0 = velocity of no-enzyme control, and P0 = initial fluorescence.
The half-life of the enzyme–inhibitor complex (t1/2) was calculated using eqn (8).8 [drawing 4]

T1 sequence (P9WKD3 35-307): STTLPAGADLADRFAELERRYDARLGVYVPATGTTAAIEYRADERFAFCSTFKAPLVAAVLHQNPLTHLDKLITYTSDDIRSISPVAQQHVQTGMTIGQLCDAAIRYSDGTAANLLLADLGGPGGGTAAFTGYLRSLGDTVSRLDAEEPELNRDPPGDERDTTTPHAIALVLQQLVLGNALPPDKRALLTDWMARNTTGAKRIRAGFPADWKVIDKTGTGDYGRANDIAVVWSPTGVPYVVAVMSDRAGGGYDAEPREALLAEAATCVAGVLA
T2 sequence (I6Y9J2 56-408): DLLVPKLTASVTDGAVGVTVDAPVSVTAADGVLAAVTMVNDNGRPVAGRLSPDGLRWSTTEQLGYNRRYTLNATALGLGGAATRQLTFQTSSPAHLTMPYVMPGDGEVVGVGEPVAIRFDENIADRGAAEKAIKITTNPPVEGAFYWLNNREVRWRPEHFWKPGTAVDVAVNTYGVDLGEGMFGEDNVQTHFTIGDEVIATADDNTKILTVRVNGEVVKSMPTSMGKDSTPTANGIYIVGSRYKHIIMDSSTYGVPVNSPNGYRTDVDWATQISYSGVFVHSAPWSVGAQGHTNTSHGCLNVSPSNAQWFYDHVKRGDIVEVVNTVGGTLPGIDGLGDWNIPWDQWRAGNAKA

For N#Cn1c(-c2ccncc2)nc2ccc(C(=O)c3ccccc3)cc21 [Compound 36], the “pIC50 BlaC” value (BlaC) was less than 4.0, the MIC50 intracellular [1] was 29.5 ± 0.0 µM and < 50 µM and the MIC50 [2] was greater than 100 µM. For the same compound, the IC50 (HepG2 cells) was 32.7 ± 0.38 µM, the “LE (ligand efficiency)” value (LdtMt2 [3]) was 0.45 and the kinact/KI (LdtMt2 [4]) was 51.0 ± 3.4 M⁻¹ s⁻¹. For the same compound, the “lowered the melting temperature of LdtMt2 by” value (LdtMt2 [5]) was 3.0 °C, the “ΔTm: difference in melting point of LdtMt2 relative to unreacted LdtMt2 (43.8 °C)” value (LdtMt2 [5]) was -3.0 and the “Tm: melting point of LdtMt2 after pre-incubation with the compound” value (“Tm: melting point of LdtMt2” below) (LdtMt2 [5]; pH 7.5, in °C (unit assumed)) was 40.8 ± 0.59.

In the case of Cc1ccc(C(=O)C=CC(=O)O)cc1C [ii], the “log(kchem) probe 2 (mean ± SD)” value [6] is given as 0.76 ± 0.03 and the “log(kchem) o-maleimide BODIPY (mean ± SD)” value [7] is given as 1.07 ± 0.09.

In the case of O=C1C=CC(=O)N1c1ccc(Oc2ccccc2)c(Cl)c1 [Compound 5], the MIC50 intracellular [1] is reported as 25.7 ± 0.30 µM and < 50 µM, the MIC50 [2] is reported as greater than 100 µM and the IC50 (HepG2 cells) is reported as 2.51 ± 0.12 µM. For the same compound, the “LE (ligand efficiency)” value (LdtMt2 [3]) was 0.53, the kinact/KI (LdtMt2 [4]) was 116 ± 6.2 M⁻¹ s⁻¹ and the “ΔTm: difference in melting point of LdtMt2 relative to unreacted LdtMt2 (43.8 °C)” value (LdtMt2 [5]) was -0.2 °C. The “Tm: melting point of LdtMt2” value (LdtMt2 [5]; pH 7.5) was 43.6 ± 0.16 °C.

In the case of O=C1C(=O)N(Cc2cccc3ccccc23)c2ccc(Br)cc21 [Compound 18], the “pIC50 BlaC” value (BlaC) is reported as less than 4.0, the “kchem (apparent intrinsic thiol reactivity)” value [6] is reported as less than 0.08 M⁻¹ s⁻¹ and the MIC50 intracellular [1] is reported as 35.5 ± 5.4 µM and < 50 µM. The MIC50 [2] was greater than 100 µM, the IC50 (HepG2 cells) was 42.3 ± 3.4 µM and the “covalent modification of LdtMt2 (adduct observed by SPE-MS)” value (LdtMt2 [8]) was “not observed to modify LdtMt2”. For the same compound, the “LE (ligand efficiency)” value (LdtMt2 [3]) was 0.49, the “pIC50, 0 min” value (LdtMt2 [3]) was 6.39 ± 0.07 and the “pIC50, 10 min” value (LdtMt2 [3]) was 6.24 ± 0.23. The “pIC50, 60 min” value (LdtMt2 [3]) was 6.49 ± 0.35, the “pIC50, 120 min” value (LdtMt2 [3]) was 6.56 ± 0.35 and the “ΔTm: difference in melting point of LdtMt2 relative to unreacted LdtMt2 (43.8 °C)” value (LdtMt2 [5]) was “+2.4”. The “Tm: melting point of LdtMt2” value (LdtMt2 [5]; pH 7.5, in °C (unit assumed)) was 46.2 ± 0.00.

For O=C(O)C=CC(=O)c1ccc(Br)cc1 [iii], the “log(kchem) probe 2 (mean ± SD)” value [6] is listed as 0.93 ± 0.02 and the “log(kchem) o-maleimide BODIPY (mean ± SD)” value [7] is listed as 1.34 ± 0.10.

With O=C(OCN1C(=O)C=CC1=O)c1ccccc1 [Compound 7] the MIC50 intracellular [1] was 39.8 ± 0.0 µM and < 50 µM, the MIC50 [2] was greater than 100 µM and the IC50 (HepG2 cells) was 3.9 ± 0.88 µM. For the same compound, the “LE (ligand efficiency)” value (LdtMt2 [3]) was 0.66, the kinact/KI (LdtMt2 [4]) was 156 ± 5.1 M⁻¹ s⁻¹ and the “Tm: melting point of LdtMt2” value (LdtMt2 [5]; pH 7.5) was 43.1 ± 0.09 °C.

With CCOc1ccc(CN2C(=O)C(=O)c3cc(Br)cc(C)c32)cc1OC [Compound 16] the IC50 (BlaC; pIC50 BlaC) was 36.3 µM, the “kchem (apparent intrinsic thiol reactivity)” value [6] was less than 0.08 M⁻¹ s⁻¹ and the “LE (ligand efficiency)” value (LdtMt2 [3]; Table S5, for LdtMt2) was 0.45. For the same compound, the IC50 (LdtMt2 [3]; Table S5 HTS hits, 30 minute inhibitor pre-incubation, two independent repeats, read-out: pIC50 LdtMt2 (converted)) was 0.178 µM, the IC50 (LdtMt2 [3]; Table S8, inhibitor pre-incubation time 0 min, read-out: pIC50, 0 min (converted)) was 0.302 µM and the IC50 (LdtMt2 [3]; Table S8, inhibitor pre-incubation time 120 min, read-out: pIC50, 120 min (converted)) was 0.407 µM. For the same compound, the IC50 (LdtMt2 [3]; pIC50, 10 min, Table S8, inhibitor pre-incubation time 10 min) was 0.363 µM, the IC50 (LdtMt2 [3]; pIC50, 60 min, Table S8, inhibitor pre-incubation time 60 min) was 0.372 µM and the “Tm: melting point of LdtMt2” value (LdtMt2 [5]; 5 µM LdtMt2, 500 µM inhibitor, SYPRO Orange, 50 mM Tris pH 7.5) was 46.8 ± 0.00 °C. The ΔTm at 500 µM (LdtMt2 [5]; read-out: ΔTm: difference in melting point of LdtMt2 relative to unreacted LdtMt2 (43.8 °C)) was 3 °C and the koff (LdtMt2 [9]) was 0.0286 s⁻¹.

In the case of CCOc1ccc(C(=O)C=CC(=O)O)cc1OCC [i], the “log(kchem) probe 2 (mean ± SD)” value [6] is listed as 0.65 ± 0.06 and the “log(kchem) o-maleimide BODIPY (mean ± SD)” value [7] is listed as 0.86 ± 0.09.

With N#C[s+]1c2ccccc2c2ccccc21.O=S(=O)([O-])C(F)(F)F [Compound 45, reference compound] the “covalent modification of LdtMt2 (adduct observed by SPE-MS)” value (LdtMt2 [8]) was “did not modify LdtMt2”.
